The target of the assay is T1, recombinant α-carboxysome shell (Halothiobacillus neapolitanus, UniProt P45688+P45689+P45690).
T1 construct: gene csoS1A; whole self-assembled multi-paralog shell (about 90 nm) from pBAD-cso-2 in E. coli; CsoS1 hexamers, CsoS4 pentamers, CsoS2 linker; with Carboxysome shell vertex protein CsoS4A; Carboxysome shell vertex protein CsoS4B; Carboxysome assembly protein CsoS2
The assay can be described thus: isothermal titration calorimetry. In kind it is binding. To be noted: TBAP (50 μM) titrated into whole shell (3.75 μM); 20 mM Tris-HCl pH 8.0, 150 mM NaCl; multi-protein particle, site not resolved by ITC. (ITC needs no label: the signal is the heat of the interaction.)

Each structure is given as a SMILES string.

T1 sequence (O85044 whole entry): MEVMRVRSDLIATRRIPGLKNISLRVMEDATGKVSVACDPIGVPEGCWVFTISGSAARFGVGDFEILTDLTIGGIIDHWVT
T1 sequence (P45688 whole entry): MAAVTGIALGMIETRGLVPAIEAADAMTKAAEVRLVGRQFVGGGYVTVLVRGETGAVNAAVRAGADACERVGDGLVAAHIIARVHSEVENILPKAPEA
T1 sequence (O85041 whole entry, further chain): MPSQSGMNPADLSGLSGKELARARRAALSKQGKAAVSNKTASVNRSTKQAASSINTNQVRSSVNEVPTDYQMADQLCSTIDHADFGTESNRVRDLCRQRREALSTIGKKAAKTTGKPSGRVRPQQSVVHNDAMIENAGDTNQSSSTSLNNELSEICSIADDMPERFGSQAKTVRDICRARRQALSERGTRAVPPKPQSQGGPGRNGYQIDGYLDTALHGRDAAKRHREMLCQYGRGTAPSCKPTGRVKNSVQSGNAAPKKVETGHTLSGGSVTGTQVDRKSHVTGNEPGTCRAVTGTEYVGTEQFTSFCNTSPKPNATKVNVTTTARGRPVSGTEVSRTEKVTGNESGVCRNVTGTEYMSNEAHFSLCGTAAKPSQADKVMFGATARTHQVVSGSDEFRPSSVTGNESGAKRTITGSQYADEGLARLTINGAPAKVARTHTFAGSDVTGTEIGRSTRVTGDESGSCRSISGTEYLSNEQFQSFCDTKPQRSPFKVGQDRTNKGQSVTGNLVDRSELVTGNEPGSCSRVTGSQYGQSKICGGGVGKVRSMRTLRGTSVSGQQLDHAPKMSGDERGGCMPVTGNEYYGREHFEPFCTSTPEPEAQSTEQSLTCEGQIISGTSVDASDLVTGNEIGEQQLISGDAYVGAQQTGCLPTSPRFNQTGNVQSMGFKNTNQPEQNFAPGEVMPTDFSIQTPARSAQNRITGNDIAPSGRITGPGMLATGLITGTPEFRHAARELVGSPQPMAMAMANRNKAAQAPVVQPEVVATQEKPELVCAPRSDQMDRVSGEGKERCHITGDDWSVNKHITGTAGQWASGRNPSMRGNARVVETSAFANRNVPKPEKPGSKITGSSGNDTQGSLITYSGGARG
T1 sequence (O85043 whole entry, further chain): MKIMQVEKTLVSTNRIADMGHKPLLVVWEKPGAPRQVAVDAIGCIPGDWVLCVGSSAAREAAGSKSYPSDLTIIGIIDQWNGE
T1 sequence (P45689 2-98): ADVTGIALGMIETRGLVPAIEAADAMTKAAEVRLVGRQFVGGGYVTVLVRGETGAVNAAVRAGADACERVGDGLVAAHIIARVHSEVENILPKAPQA
T1 sequence (P45690 whole entry): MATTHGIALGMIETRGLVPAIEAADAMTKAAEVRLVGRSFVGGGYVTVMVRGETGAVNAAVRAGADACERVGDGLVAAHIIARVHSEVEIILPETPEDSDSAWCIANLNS

In the case of `O=C(O)c1ccc(-c2cc(-c3ccc(C(=O)O)cc3)c3ccc4c(-c5ccc(C(=O)O)cc5)cc(-c5ccc(C(=O)O)cc5)c5ccc2c3c54)cc1` [TBAP, 1,3,6,8-tetra(4′-carboxyphenyl)pyrene], the Kd was found to be 524 nM.

As a reminder, the Kd is the concentration at which binding is half-saturated.
